*1 amine or outer side, *2 acyl side, *3 side chain or, on linkers, in order; H or OH if unused. Bridges are numbered along the chain shown (N, C = ends). Roman numbers before positions name the chains, in order. Side-chain parts run from the residue outwards. [ ]: non-standard residue; d: D form. The star is where a group is joined. C20 diacid = O=C(O)CCCCCCCCCCCCCCCCCCC(=O)*; C18 diacid = O=C(O)CCCCCCCCCCCCCCCCC(=O)*; γGlu = O=C(O)[C@H](CCC(=O)[*:2])N[*:1]; εLys = N[C@@H](CCCCN[*:1])C(=O)[*:2]; pGlu = O=C1CC[C@@H](C(=O)O)N1; αMeL = CC(C)C[C@](C)(N)C(=O)O; AEEA = NCCOCCOCC(=O)O; Aib = CC(C)(N)C(=O)O; Ahx = NCCCCCC(=O)O; βAla = NCCC(=O)O
Key:
[1] = biological target: T1, human CRHR1 (Homo sapiens, UniProt P34998); assay: Human CRHR1 cAMP assay (HTRF) in HEK293 cells stably expressing human CRHR1; type: cell-based; details: HEK293 cells overexpressing human CRHR1; relative EC50, maximum 66 nM human UCN1; mean ± SE; read-out: hCRHR1 cAMP EC50 (pM, ± SE)
T1 construct: expressed in transfected cells
T1 sequence (P34998 24-415): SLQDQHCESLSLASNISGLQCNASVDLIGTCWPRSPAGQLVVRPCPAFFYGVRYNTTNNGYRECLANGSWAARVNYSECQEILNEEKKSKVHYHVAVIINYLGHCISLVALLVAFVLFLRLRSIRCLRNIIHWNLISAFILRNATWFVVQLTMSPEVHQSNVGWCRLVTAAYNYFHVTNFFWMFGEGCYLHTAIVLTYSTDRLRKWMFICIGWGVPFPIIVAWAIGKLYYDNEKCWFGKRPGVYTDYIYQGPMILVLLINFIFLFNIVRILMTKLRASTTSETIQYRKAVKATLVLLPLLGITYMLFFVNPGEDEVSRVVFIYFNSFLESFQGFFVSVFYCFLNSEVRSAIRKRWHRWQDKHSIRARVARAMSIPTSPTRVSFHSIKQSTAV
Procedure, shortened: (§1)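 Peptides were tested as 1:3 dilution series on thawed HEK293 cells stably expressing the receptor, in MEM with 0.1% casein, 5 mM HEPES pH 7.4 and 0.25 mM IBMX. CRHR1 cells (25,000/well) were incubated 1 h at 37° C; CRHR2 cells (5,000/well) 30 min at room temperature. cAMP was read by HTRF (665/620 nm) against a cAMP standard curve.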

[2] = biological target: T2, human CRHR2 (Homo sapiens, UniProt Q13324); assay: Human CRHR2 cAMP assay (HTRF) in HEK293 cells stably expressing human CRHR2; type: cell-based; details: HEK293 cells overexpressing human CRHR2; relative EC50, maximum 10 nM human UCN2; mean ± SE; read-out: hCRHR2 cAMP EC50 (pM, ± SE)
T2 construct: expressed in transfected cells
T2 sequence (Q13324 1-438 isoform Q13324-2): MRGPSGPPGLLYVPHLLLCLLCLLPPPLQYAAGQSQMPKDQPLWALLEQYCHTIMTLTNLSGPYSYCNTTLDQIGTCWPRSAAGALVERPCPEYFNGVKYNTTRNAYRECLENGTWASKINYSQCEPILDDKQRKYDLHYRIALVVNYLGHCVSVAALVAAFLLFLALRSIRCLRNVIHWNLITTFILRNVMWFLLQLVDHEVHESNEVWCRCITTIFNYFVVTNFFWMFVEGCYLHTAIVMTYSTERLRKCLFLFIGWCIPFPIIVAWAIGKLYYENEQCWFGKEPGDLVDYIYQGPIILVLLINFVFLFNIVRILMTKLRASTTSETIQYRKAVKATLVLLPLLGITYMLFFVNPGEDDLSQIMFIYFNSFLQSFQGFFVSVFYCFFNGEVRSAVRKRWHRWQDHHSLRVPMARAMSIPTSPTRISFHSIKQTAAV
Procedure, shortened: as §1

Row | Substance | EC50 [1] [pM] | EC50 [2] [pM]
1 | Ac-GSPSIVTS[αMeL]DVPT[Aib][αMeL]LQKILEQERAEKARQQAK([Ahx-AEEA-γGlu-C20 diacid])EAAEILAQV-NH2 [SEQ ID NO: 4, Ac-GSPSIVTS αMeL DVPT Aib αMeL LQKILEQERAEKARQQAK(Ahx-(2-[2-(2-Amino-ethoxy)-ethoxy]-acetyl)-γE-CO-(CH2)18-CO2H)EAAEILAQV-NH2] | > 1e+07 | 20.3 ± 2.9
2 | Ac-GSPSIVTS[αMeL]DVPT[Aib][αMeL]LQKILEQERAEKARQQAK([Gly-βAla-βAla-βAla-βAla-γGlu-C20 diacid])EAAEILAQV-NH2 [SEQ ID NO: 8, Ac-GSPSIVTS αMeL DVPT Aib αMeL LQKILEQERAEKARQQAK(G-(βA)4-γE-CO-(CH2)18-CO2H)EAAEILAQV-NH2] | > 1e+07 | 11 ± 0.9
3 | Ac-GSPSIVTS[αMeL]DVPT[Aib][αMeL]LQKILEQERAEKARQQAK([Gly-βAla-βAla-βAla-γGlu-C20 diacid])EAAEILAQV-NH2 [SEQ ID NO: 7, Ac-GSPSIVTS αMeL DVPT Aib αMeL LQKILEQERAEKARQQAK(G-(βA)3-γE-CO-(CH2)18-CO2H)EAAEILAQV-NH2] | > 1e+07 | 10.6 ± 1.4
4 | Ac-GSPSIVTS[αMeL]DVPT[Aib][αMeL]LQKILEQERAEKARQQAK([βAla-Ser-βAla-Ser-γGlu-C20 diacid])EAAEILAQV-NH2 [SEQ ID NO: 10, Ac-GSPSIVTS αMeL DVPT Aib αMeL LQKILEQERAEKARQQAK((βA)-S-(βA)-S-γE-CO-(CH2)18-CO2H)EAAEILAQV-NH2] | > 1e+07 | 10.1 ± 1.1
5 | Ac-GSPSIVTS[αMeL]DVPT[Aib][αMeL]LQKILEQERAEKARQQAK([γGlu-AEEA-AEEA-εLys-C20 diacid])EAAEILAQV-NH2 [SEQ ID NO: 17, Ac-GSPSIVTS αMeL DVPT Aib αMeL LQKILEQERAEKARQQAK(γE-(2-[2-(2-Amino-ethoxy)-ethoxy]-acetyl)2-ϵK-CO-(CH2)18-CO2H)EAAEILAQV-NH2] | > 1e+07 | 9.5 ± 0.9
6 | Ac-GSPSIVTS[αMeL]DVPT[Aib][αMeL]LQKILEQERAEKARQQAK([γGlu-AEEA-Ahx-C20 diacid])EAAEILAQV-NH2 [SEQ ID NO: 5, Ac-GSPSIVTS αMeL DVPT Aib αMeL LQKILEQERAEKARQQAK(γE-(2-[2-(2-Amino-ethoxy)-ethoxy]-acetyl)-Ahx-CO-(CH2)18-CO2H)EAAEILAQV-NH2] | > 1e+07 | 10.7 ± 0.8
7 | Ac-GSPSIVTS[αMeL]DVPT[Aib][αMeL]LQKILEQERAEKARQQAK([γGlu-AEEA-εLys-C18 diacid])EAAEILAQV-NH2 [SEQ ID NO: 21, Ac-GSPSIVTS αMeL DVPT Aib αMeL LQKILEQERAEKARQQAK(γE-(2-[2-(2-Amino-ethoxy)-ethoxy]-acetyl)-ϵK-CO-(CH2)16-CO2H)EAAEILAQV-NH2] | > 1e+07 | 16.3 ± 1.3
8 | Ac-GSPSIVTS[αMeL]DVPT[Aib][αMeL]LQKILEQERAEKARQQAK([γGlu-Pro-Lys-Glu-Ahx-C20 diacid])EAAEILAQV-NH2 [SEQ ID NO: 11, Ac-GSPSIVTS αMeL DVPT Aib αMeL LQKILEQERAEKARQQAK(γE-PKE-Ahx-CO-(CH2)18-CO2H)EAAEILAQV-NH2] | > 1e+07 | 8.3 ± 1.4
9 | Ac-GSPSIVTS[αMeL]DVPT[Aib][αMeL]LQKILEQERAEKARQQAK([γGlu-Pro-Lys-Glu-εLys-C20 diacid])EAAEILAQV-NH2 [SEQ ID NO: 13, Ac-GSPSIVTS αMeL DVPT Aib αMeL LQKILEQERAEKARQQAK(γE-PKE-ϵK-CO-(CH2)18-CO2H)EAAEILAQV-NH2] | > 1e+07 | 7.9 ± 0.3
10 | Ac-GSPSIVTS[αMeL]DVPT[Aib][αMeL]LQKILEQERAEKARQQAK([γGlu-Pro-Pro-Pro-εLys-C20 diacid])EAAEILAQV-NH2 [SEQ ID NO: 14, Ac-GSPSIVTS αMeL DVPT Aib αMeL LQKILEQERAEKARQQAK(γE-PPP-EK-CO-(CH2)18-CO2H)EAAEILAQV-NH2] | > 1e+07 | 8.3 ± 0.5
11 | Ac-GSPSIVTS[αMeL]DVPT[Aib][αMeL]LQKILEQERAEKARQQAK([γGlu-εLys-AEEA-εLys-C20 diacid])EAAEILAQV-NH2 [SEQ ID NO: 19, Ac-GSPSIVTS αMeL DVPT Aib αMeL LQKILEQERAEKARQQAK(γE-EK-(2-[2-(2-Amino-ethoxy)-ethoxy]-acetyl)-ϵK-CO-(CH2)18-CO2H)EAAEILAQV-NH2] | > 1e+07 | 11.1 ± 0.5
12 | Ac-GSPSIVTS[αMeL]DVPT[Aib][αMeL]LQKILEQERAEKARQQAK([γGlu-εLys-γGlu-εLys-C20 diacid])EAAEILAQV-NH2 [SEQ ID NO: 18, Ac-GSPSIVTS αMeL DVPT Aib αMeL LQKILEQERAEKARQQAK(γE-ϵK-γE-ϵK-CO-(CH2)18-CO2H)EAAEILAQV-NH2] | > 1e+07 | 10.9 ± 1.3
13 | Ac-GSPSIVTS[αMeL]DVPT[Aib][αMeL]LQKILEQERAEKARQQAKEAAEILAQV-NH2 [SEQ ID NO: 20] | > 1e+07 | 15.3 ± 1.4
14 | Ac-PPPIVTS[αMeL]D[dV]PT[Aib][αMeL]LQKLLEQERAEKARQQAK([γGlu-AEEA-εLys-C20 diacid])EAAEILAQV-NH2 [SEQ ID NO: 47, Ac-PPPIVTS αMeL D (D-Val) PT Aib αMeL LQKLLEQERAEKARQQAK(γE-(2-[2-(2-Amino-ethoxy)-ethoxy]-acetyl)-ϵK-CO-(CH2)18-CO2H)EAAEILAQV-NH2] | 2.3e+06 | 17.5 ± 2.2
15 | Ac-PPPIVTS[αMeL]D[dV]PT[Aib][αMeL]LQK[Aib]LEQERAEKARQQAK([γGlu-AEEA-εLys-C20 diacid])ENTEILAQV-NH2 [SEQ ID NO: 46, Ac-PPPIVTS αMeL D (D-Val) PT Aib αMeL LQK Aib LEQERAEKARQQAK(γE-(2-[2-(2-Amino-ethoxy)-ethoxy]-acetyl)-ϵK-CO-(CH2)18-CO2H)ENTEILAQV-NH2] | > 1e+07 | 13 ± 1.1
16 | H-GSPSIVTS[αMeL]DVPT[Aib][αMeL]LQKILEQERAEKARQQATEAAEILAQV-NH2 [SEQ ID NO: 27] | > 1e+07 | 23.6 ± 2.9
17 | I: Ac-GSPSIVTS[αMeL]DVPT[Aib][αMeL]LQKILEQERAEKARQQAKEAAEILAQV-NH2 / II: {C20 diacid-γGlu}-EKEKEK[AEEA] (amide I:33-II:C) [SEQ ID NO: 9, Ac-GSPSIVTS αMeL DVPT Aib αMeL LQKILEQERAEKARQQAK((2-[2-(2-Amino-ethoxy)-ethoxy]-acetyl)-KEKEKE-γE-CO-(CH2)18-CO2H)EAAEILAQV-NH2] | > 1e+07 | 15.5 ± 3.3
18 | I: Ac-GSPSIVTS[αMeL]DVPT[Aib][αMeL]LQKILEQERAEKARQQAKEAAEILAQV-NH2 / II: {C20 diacid}-EPEPEP[γGlu] (amide I:33-II:C) [SEQ ID NO: 16, Ac-GSPSIVTS αMeL DVPT Aib αMeL LQKILEQERAEKARQQAK(γE-PEPEPE-CO-(CH2)18-CO2H)EAAEILAQV-NH2] | > 1e+07 | 12.5 ± 1.1
19 | I: Ac-GSPSIVTS[αMeL]DVPT[Aib][αMeL]LQKILEQERAEKARQQAKEAAEILAQV-NH2 / II: {C20 diacid}-PPPPPP[γGlu] (amide I:33-II:C) [SEQ ID NO: 15, Ac-GSPSIVTS αMeL DVPT Aib αMeL LQKILEQERAEKARQQAK(γE-PPPPPP-CO-(CH2)18-CO2H)EAAEILAQV-NH2] | > 1e+07 | 11.3 ± 0.4
20 | [pGlu]GSPSGIVTS[αMeL]DVPT[Aib][αMeL]LQKILEQERAEKARQQAK([γGlu-AEEA-εLys-C18 diacid])EAAEILAQV-NH2 [SEQ ID NO: 24, Pyr-GSPSGIVTS αMeL DVPT Aib αMeL LQKILEQERAEKARQQAK(γE-(2-[2-(2-Amino-ethoxy)-ethoxy]-acetyl)-ϵK-CO-(CH2)16-CO2H)EAAEILAQV-NH2] | > 1e+07 | 21.7 ± 3.6
21 | [pGlu]GSPSGIVTS[αMeL]DVPT[Aib][αMeL]LQKILEQERAEKARQQAKEAAEILAQV-NH2 [SEQ ID NO: 23] | > 1e+07 | 28.9 ± 1.2
22 | {C18 diacid-εLys-AEEA-γGlu}-GSPSIVTS[αMeL]DVPT[Aib][αMeL]LQKILEQERAEKARQQATEAAEILAQV-NH2 [SEQ ID NO: 28] | > 1e+07 | 12.8 ± 2
